Reference: patent US12150940B2, “WASp-protecting small molecules, compositions, methods and uses thereof in the treatment of innate and acquired immune-related disorders or conditions” (BAR ILAN UNIVERSITY, priority 2016, dated 2024)
Peptide text beside a SMILES is read from it. * marks the point of attachment. Cbz = O=C(OCc1ccccc1)*

Target: T1, WASp (Homo sapiens, UniProt P42768)
T1 construct: endogenous in cells; host or cells: primary human platelets from healthy donors
T1 sequence (P42768 1-502): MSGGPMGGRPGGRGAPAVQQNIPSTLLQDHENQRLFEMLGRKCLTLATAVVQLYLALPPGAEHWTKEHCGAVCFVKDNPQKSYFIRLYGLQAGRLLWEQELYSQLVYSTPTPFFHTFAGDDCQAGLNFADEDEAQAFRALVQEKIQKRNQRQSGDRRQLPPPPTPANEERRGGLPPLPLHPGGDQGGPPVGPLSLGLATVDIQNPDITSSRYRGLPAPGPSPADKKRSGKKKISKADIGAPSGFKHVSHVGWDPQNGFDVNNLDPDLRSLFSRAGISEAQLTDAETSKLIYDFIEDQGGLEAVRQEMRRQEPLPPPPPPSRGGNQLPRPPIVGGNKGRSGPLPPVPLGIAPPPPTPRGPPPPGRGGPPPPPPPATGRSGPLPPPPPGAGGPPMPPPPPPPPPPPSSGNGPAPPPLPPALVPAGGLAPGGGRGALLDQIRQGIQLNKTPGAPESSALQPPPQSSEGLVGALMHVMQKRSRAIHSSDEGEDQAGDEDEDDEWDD
Test: WASp expression in TRAP-6-activated platelets (western blot)
Format: cell-based
Description: FIG. 4A-4B. Freshly-isolated platelets were incubated with SMC #6 or control at 37° C. for the indicated times. The platelets were either stimulated (+) with TRAP-6 (10 μM) or left unstimulated (−), followed by lysis. Lysates were analyzed for WASp expression by immunoblotting with anti-WASp and anti-GAPDH as loading control (FIG. 4A). Relative WASp expression was determined by densitometric analysis and is presented in a summarizing graph of FIG. 4B. Error bars represent the SE from the mean. P values are presented and were calculated by two-tailed Student's t-test. Data are representative of three independent experiments.
Jurkat T-cells (FIG. 5A) or Freshly-isolated PBMCs (FIG. 5B) were incubated for 15 min at 37° C. with either control or the indicated WASp-binding SMCs, followed by co-stimulation with anti-CD3 and anti-CD28 and lysis. Freshly-isolated platelets were incubated for 15 min at 37° C. with either control or the indicated WASp-binding SMCs, followed by stimulation with TRAP-6 (10 μM) and lysis (FIG. 5C). Lysates were analyzed for WASp expression by immunoblotting with anti-WASp and anti-GAPDH as loading control. Western blot is representative of three independent experiments. […] Relative WASp expression was determined by densitometric analysis. […]
FIG. 6A-6D. […] Lysates were analyzed for WASp expression by immunoblotting with anti-WASp and anti-GAPDH as loading control (FIG. 6A). […]

WASp degradation in activated platelets (40 μM, 15 min pre-incubation, vs DMSO control)	Structure (SMILES)	increase in WASp expression (platelets after 15 min of activation, with vs without proteasome inhibitor (10 μM, 1 h))
–	CC(C)C[C@@H](C=O)NC(=O)[C@H](CC(C)C)NC(=O)[C@H](CC(C)C)NC(=O)OCc1ccccc1 [MG132] (Cbz-Leu-Leu-Leu-aldehyde)	more than 2 fold
attenuated WASp degradation	CC(=O)N[C@H]1C[C@@H](c2ccc3c(c2)nnn3C)O[C@@H](c2ccc(Cl)cc2)C1 [SMC #6, N-[(2R,4R,6S)-2-(4-chlorophenyl)-6-(1-methylbenzotriazol-5-yl)oxan-4-yl]acetamide]	–
